Here are results for twelve compounds from patent US20250296971A1, “GASTRIC INHIBITORY PEPTIDE RECEPTOR LIGANDS” (priority 2021, published 2025).

*1 amine or outer side, *2 acyl side, *3 side chain or, on linkers, in order; H or OH if unused. Where a SMILES comes first, the peptide text is derived from it. Bridges are numbered along the chain shown (N, C = ends). [ ]: non-standard residue; d: D form. The star is where a group is joined. TBMB(SCH2CH2NH-DOTA) = O=C(O)CN1CCN(CC(=O)O)CCN(CC(=O)NCCSCc2cc(C[*:1])cc(C[*:2])c2)CCN(CC(=O)O)CC1; X5 = NC(=O)[C@H](CCCCNC(=O)CN1CCN(CC(=O)O)CCN(CC(=O)O)CCN(CC(=O)O)CC1)NC(=O)CCC(=O)NCCCOCCOCCOCCCN*; X19 = O=C(O)CN1CCN(CC(=O)O)CCN(CC(=O)N2CCN(Cc3cc(C[*:1])cc(C[*:2])c3)CC2)CCN(CC(=O)O)CC1; X3 = O=C(O)CN1CCN(CC(=O)O)CCN(CC(=O)NCCCOCCOCCOCCCN*)CCN(CC(=O)O)CC1; DOTA = O=C(O)CN1CCN(CC(=O)O)CCN(CC(=O)*)CCN(CC(=O)O)CC1; Propanoyl(3-(1-naphthyl)) = O=C(CCc1cccc2ccccc12)*; Trp(5-Cl) = N[C@@H](Cc1c[nH]c2ccc(Cl)cc12)C(=O)O; Trp(6-Cl) = N[C@@H](Cc1c[nH]c2cc(Cl)ccc12)C(=O)O; Trp(6-F) = N[C@@H](Cc1c[nH]c2cc(F)ccc12)C(=O)O; Propanoyl(3-(4-Cl-Ph)) = O=C(CCc1ccc(Cl)cc1)*; mXylylene = c1cc(C[*:1])cc(C[*:2])c1; X6 = c1cc(CSCCN[*:2])nc(C[*:1])c1; X7 = c1cc(CSCCN[*:2])cc(C[*:1])c1; Hyp = O=C(O)[C@@H]1C[C@@H](O)CN1; X1 = O=C(CN1CCC(N[*:1])CC1)[*:2]; Cha = N[C@@H](CC1CCCCC1)C(=O)O; Suc = O=C(CCC(=O)[*:2])[*:1]; X28 = O=C(CCc1ccc2ccccc2c1)*; Thp = NC1(C(=O)O)CCOCC1; Aib = CC(C)(N)C(=O)O

The test has as its target T1, GIPR (CHO-K1-hGIPR cells) (Homo sapiens, UniProt P48546).
T1 construct: host or cells: CHO-K1
T1 sequence (P48546 22-466): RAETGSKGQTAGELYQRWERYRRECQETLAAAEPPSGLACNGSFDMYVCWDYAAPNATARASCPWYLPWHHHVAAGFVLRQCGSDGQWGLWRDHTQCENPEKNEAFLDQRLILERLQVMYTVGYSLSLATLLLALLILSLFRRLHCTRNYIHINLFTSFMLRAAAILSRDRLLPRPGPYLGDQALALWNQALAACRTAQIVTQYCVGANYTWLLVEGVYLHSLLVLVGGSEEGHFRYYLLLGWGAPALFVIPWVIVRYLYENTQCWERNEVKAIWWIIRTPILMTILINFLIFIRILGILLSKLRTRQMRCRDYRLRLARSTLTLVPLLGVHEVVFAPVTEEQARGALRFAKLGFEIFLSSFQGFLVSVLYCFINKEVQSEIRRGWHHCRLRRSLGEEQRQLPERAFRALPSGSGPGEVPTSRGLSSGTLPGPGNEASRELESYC
As to the kind of experiment: FACS binding assay. To be noted: competition with 20 nM GIP-057, 4° C. for 1 hour, read-out: pIC50 Category (converted). The gist of the method: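 Read-out: flow cytometric median fluorescence intensity, APC/Cy5 channel, plotted vs peptide conc.; 4PL fit → EC50/pEC50 or IC50/pIC50. Cells: CHO-K1-hGIPR, Accutase-detached, 500.000/mL in PBS + 1% FCS. Detection: APC-streptavidin 1 μg/mL, 30 min, on ice.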
Turning to `CC[C@H](C)[C@@H]1NC(=O)[C@H](CC(C)C)NC(=O)C(C)(C)NC(=O)[C@@H](NC(=O)[C@H](CC(C)C)NC(=O)[C@H](CCC(=O)O)NC(=O)[C@@H]2CCCN2C(=O)[C@H](Cc2c[nH]c3ccccc23)NC(=O)[C@H](Cc2c[nH]c3ccc(Cl)cc23)NC(=O)[C@H](CC(=O)O)NC(C)=O)CSCc2cccc(c2)CSC[C@@H](C(=O)NCCCOCCOCCOCCCNC(=O)CCC(=O)N[C@@H](CCCCNC(=O)CN2CCN(CC(=O)O)CCN(CC(=O)O)CCN(CC(=O)O)CC2)C(N)=O)NC1=O` [GIP-277, Ac-Asp-5Clw-Trp-Pro-Glu-Leu-[Cys(3MeBn)-Aib-Leu-Ile-Cys]-Ttds-Lys(DOTA)-NH2] (Ac-D[Trp(5-Cl)]WPELC[Aib]LIC-X5; linker 7-11 via mXylylene), the IC50 was 100 to 794 nM.

On to `CC(=O)N[C@@H](CC(=O)O)C(=O)N[C@@H](Cc1c[nH]c2ccccc12)C(=O)N[C@@H](Cc1c[nH]c2ccccc12)C(=O)N1CCC[C@H]1C(=O)N[C@@H](CCC(=O)O)C(=O)N[C@@H](CC(C)C)C(=O)N[C@H]1CSCc2cccc(c2)CSC[C@@H](C(=O)NCCCOCCOCCOCCCNC(=O)CCC(=O)N[C@@H](CCCCNC(=O)CN2CCN(CC(=O)O)CCN(CC(=O)O)CCN(CC(=O)O)CC2)C(N)=O)NC(=O)[C@H](CC2CCCCC2)NC(=O)[C@H](CC(C)C)NC(=O)C(C)(C)NC1=O` [GIP-278, Ac-Asp-Trp-Trp-Pro-Glu-Leu-[Cys(3MeBn)-Aib-Leu-Cha-Cys]-Ttds-Lys(DOTA)-NH2] (Ac-DWWPELC[Aib]L[Cha]C-X5; linker 7-11 via mXylylene), for which the IC50 was 100 to 794 nM.

As to `CC[C@H](C)[C@@H]1NC(=O)[C@H](CC(C)C)NC(=O)C(C)(C)NC(=O)[C@@H](NC(=O)[C@@H](CC(C)C)NC(=O)[C@H](CCC(=O)O)NC(=O)[C@@H]2CCCN2C(=O)[C@H](Cc2c[nH]c3ccccc23)NC(=O)[C@H](Cc2c[nH]c3ccccc23)NC(=O)[C@H](CC(=O)O)NC(=O)CCc2ccc(Cl)cc2)CSCc2cccc(c2)CSC[C@@H](C(=O)NCCCOCCOCCOCCCNC(=O)CCC(=O)N[C@@H](CCCCNC(=O)CN2CCN(CC(=O)O)CCN(CC(=O)O)CCN(CC(=O)O)CC2)C(N)=O)NC1=O` [GIP-279, 4ClPhp-Asp-Trp-Trp-Pro-Glu-leu-[Cys(3MeBn)-Aib-Leu-Ile-Cys]-Ttds-Lys(DOTA)-NH2] ({Propanoyl(3-(4-Cl-Ph))}-DWWPE[dL]C[Aib]LIC-X5; linker 7-11 via mXylylene), the IC50 was 100 to 794 nM.

With `CC[C@H](C)[C@@H]1NC(=O)[C@H](CC(C)C)NC(=O)C(C)(C)NC(=O)[C@@H](NC(=O)[C@@H](CC(C)C)NC(=O)[C@H](CCC(=O)O)NC(=O)[C@@H]2CCCN2C(=O)[C@H](Cc2c[nH]c3ccccc23)NC(=O)[C@H](Cc2c[nH]c3ccccc23)NC(=O)[C@H](CC(=O)O)NC(=O)CCc2cccc3ccccc23)CSCc2cccc(c2)CSC[C@@H](C(=O)NCCCOCCOCCOCCCNC(=O)CCC(=O)N[C@@H](CCCCNC(=O)CN2CCN(CC(=O)O)CCN(CC(=O)O)CCN(CC(=O)O)CC2)C(N)=O)NC1=O` [GIP-280, Nph1p-Asp-Trp-Trp-Pro-Glu-leu-[Cys(3MeBn)-Aib-Leu-Ile-Cys]-Ttds-Lys(DOTA)-NH2] ({Propanoyl(3-(1-naphthyl))}-DWWPE[dL]C[Aib]LIC-X5; linker 7-11 via mXylylene), the IC50 was 100 to 794 nM.

On to `CC[C@H](C)[C@@H]1NC(=O)[C@H](CC(C)C)NC(=O)C(C)(C)NC(=O)[C@@H](NC(=O)[C@@H](CC(C)C)NC(=O)[C@H](CCC(=O)O)NC(=O)[C@@H]2CCCN2C(=O)[C@H](Cc2c[nH]c3ccccc23)NC(=O)[C@H](Cc2c[nH]c3ccccc23)NC(=O)[C@H](CC(=O)O)NC(=O)CCc2ccc3ccccc3c2)CSCc2cccc(c2)CSC[C@@H](C(=O)NCCCOCCOCCOCCCNC(=O)CCC(=O)N[C@@H](CCCCNC(=O)CN2CCN(CC(=O)O)CCN(CC(=O)O)CCN(CC(=O)O)CC2)C(N)=O)NC1=O` [GIP-281, Nph2p-Asp-Trp-Trp-Pro-Glu-leu-[Cys(3MeBn)-Aib-Leu-Ile-Cys]-Ttds-Lys(DOTA)-NH2] (X28-DWWPE[dL]C[Aib]LIC-X5; linker 7-11 via mXylylene), for which the IC50 was 100 to 794 nM.

Take `CC[C@H](C)[C@@H]1NC(=O)[C@H](CC(C)C)NC(=O)C(C)(C)NC(=O)[C@@H](NC(=O)[C@@H](CC(C)C)NC(=O)[C@H](CCC(=O)O)NC(=O)[C@@H]2CCCN2C(=O)[C@H](Cc2c[nH]c3cc(Cl)ccc23)NC(=O)[C@H](Cc2c[nH]c3ccccc23)NC(=O)[C@H](CC(=O)O)NC(C)=O)CSCc2cccc(c2)CSC[C@@H](C(=O)NCCCOCCOCCOCCCNC(=O)CCC(=O)N[C@@H](CCCCNC(=O)CN2CCN(CC(=O)O)CCN(CC(=O)O)CCN(CC(=O)O)CC2)C(N)=O)NC1=O` [GIP-282, Ac-Asp-Trp-6Clw-Pro-Glu-leu-[Cys(3MeBn)-Aib-Leu-Ile-Cys]-Ttds-Lys(DOTA)-NH2] (Ac-DW[Trp(6-Cl)]PE[dL]C[Aib]LIC-X5; linker 7-11 via mXylylene): the IC50 was 100 to 794 nM.

For the compound `CC[C@H](C)[C@@H]1NC(=O)[C@H](CC(C)C)NC(=O)C(C)(C)NC(=O)[C@@H](NC(=O)[C@@H](CC(C)C)NC(=O)[C@H](CCC(=O)O)NC(=O)[C@@H]2CCCN2C(=O)[C@H](Cc2c[nH]c3ccccc23)NC(=O)[C@H](Cc2c[nH]c3cc(F)ccc23)NC(=O)[C@H](CC(=O)O)NC(=O)CCC(=O)NCCCOCCOCCOCCCNC(=O)CN2CCN(CC(=O)O)CCN(CC(=O)O)CCN(CC(=O)O)CC2)CSCc2cccc(c2)CSCCNC1=O` [GIP-283, DOTA-Ttds-Asp-6Fw-Trp-Pro-Glu-leu-[Cys(3MeBn)-Aib-Leu-Ile-AET]] ({X3-Suc}-D[Trp(6-F)]WPE[dL]C[Aib]LI; linker 7-C via X7), the IC50 is 100 to 794 nM.

Consider `CC[C@H](C)[C@@H]1NC(=O)[C@H](CC(C)C)NC(=O)C2(CCOCC2)NC(=O)[C@@H](NC(=O)[C@@H](CC(C)C)NC(=O)[C@H](CCC(=O)O)NC(=O)[C@@H]2C[C@@H](O)CN2C(=O)[C@H](Cc2c[nH]c3ccc(Cl)cc23)NC(=O)CNC(=O)[C@H](CC(=O)O)NC(=O)CN2CCC(NC(=O)CN3CCN(CC(=O)O)CCN(CC(=O)O)CCN(CC(=O)O)CC3)CC2)CSCc2cccc(n2)CSCCNC1=O` [GIP-284, DOTA-APAc-Asp-Gly-5Clw-Hyp-Glu-leu-[Cys(2Lut)-Thp-Leu-Ile-AET]] ({DOTA}-[X1]DG[Trp(5-Cl)][Hyp]E[dL]C[Thp]LI; linker 8-C via X6), for which the IC50 was 100 to 794 nM.

For `CC[C@H](C)[C@@H]1NC(=O)[C@H](CC(C)C)NC(=O)[C@@H](C)NC(=O)[C@@H](NC(=O)[C@@H](CC(C)C)NC(=O)[C@H](CCC(=O)O)NC(=O)[C@@H]2CCCN2C(=O)[C@H](Cc2c[nH]c3ccccc23)NC(=O)[C@H](Cc2c[nH]c3ccccc23)NC(=O)[C@H](CC(=O)O)NC(=O)CCC(=O)NCCCOCCOCCOCCCNC(=O)CN2CCN(CC(=O)O)CCN(CC(=O)O)CCN(CC(=O)O)CC2)CSCc2cccc(c2)CSC[C@@H](C(=O)O)NC1=O` [GIP-285, DOTA-Ttds-Asp-Trp-Trp-Pro-Glu-leu-[Cys(3MeBn)-ala-Leu-Ile-Cys]-OH] ({X3-Suc}-DWWPE[dL]C[dA]LIC-OH; linker 7-11 via mXylylene), the IC50 is above 1000 nM.

As for `CC[C@H](C)[C@@H]1NC(=O)[C@H](CC(C)C)NC(=O)[C@@H](C)NC(=O)[C@@H](NC(=O)[C@@H](CC(C)C)NC(=O)[C@H](CCC(=O)O)NC(=O)[C@@H]2CCCN2C(=O)[C@H](Cc2c[nH]c3ccccc23)NC(=O)[C@H](Cc2c[nH]c3ccccc23)NC(=O)CCC(=O)O)CSCc2cc(cc(CN3CCN(C(=O)CN4CCN(CC(=O)O)CCN(CC(=O)O)CCN(CC(=O)O)CC4)CC3)c2)CSC[C@@H](C(N)=O)NC1=O` [GIP-286, HO-Succinyl-Trp-Trp-Pro-Glu-leu-[Cys(tMeBn(DOTA-PP))-ala-Leu-Ile-Cys]-NH2] (Suc-WWPE[dL]C[dA]LIC-NH2; linker 6-10 via X19), the IC50 is above 1000 nM.

On to `CC[C@H](C)[C@@H]1NC(=O)[C@H](CC(C)C)NC(=O)[C@@H](C)NC(=O)[C@@H](NC(=O)[C@@H](CC(C)C)NC(=O)[C@H](CCC(=O)O)NC(=O)[C@@H]2CCCN2C(=O)[C@H](Cc2c[nH]c3ccccc23)NC(=O)[C@H](Cc2c[nH]c3ccccc23)NC(=O)CCC(=O)O)CSCc2cc(CSCCNC(=O)CN3CCN(CC(=O)O)CCN(CC(=O)O)CCN(CC(=O)O)CC3)cc(c2)CSC[C@@H](C(N)=O)NC1=O` [GIP-287, HO-Succinyl-Trp-Trp-Pro-Glu-leu-[Cys(tMeBn(DOTA-AET))-ala-Leu-Ile-Cys]-NH2] (Suc-WWPE[dL]C[dA]LIC-NH2; linker 6-10 via TBMB(SCH2CH2NH-DOTA)), for which the IC50 was above 1000 nM.

As to `CC[C@H](C)[C@@H]1NC(=O)[C@H](CC(C)C)NC(=O)[C@@H](C)NC(=O)[C@@H](NC(=O)[C@@H](CC(C)C)NC(=O)[C@H](CCC(=O)O)NC(=O)[C@@H]2CCCN2C(=O)[C@H](Cc2c[nH]c3ccccc23)NC(=O)[C@H](Cc2c[nH]c3ccccc23)NC(=O)CCC(=O)O)CSCc2cccc(c2)CSC[C@@H](C(=O)NCCCOCCOCCOCCCNC(=O)CCC(=O)N[C@@H](CCCCNC(=O)CN2CCN(CC(=O)O)CCN(CC(=O)O)CCN(CC(=O)O)CC2)C(N)=O)NC1=O` [GIP-288, HO-Succinyl-Trp-Trp-Pro-Glu-leu-[Cys(3MeBn)-ala-Leu-Ile-Cys]-Ttds-Lys(DOTA)-NH2] (Suc-WWPE[dL]C[dA]LIC-X5; linker 6-10 via mXylylene), the IC50 is above 1000 nM.
